Each structure is given as a SMILES string.

Consider 5 compounds from PMC5150697 (ACS Medicinal Chemistry Letters, 2016).

The test system of series [1] is ABCA1 induction in human whole blood. The series is described as follows: Human whole blood assay. Type of series: cell-based. To be noted: for improvement in hWBA potency compared to 5: ratio of hWBA EC50 values vs 5.
Series [2] has as its system human α1 AGP. The series is described as follows: Equilibrium dialysis with human α1 AGP. Type of series: in vitro ADME. To be noted: 1 µM, 0.1% AGP, pH 7.4, 37 °C, 4 h, n = 3. In general terms: In equilibrium dialysis only unbound substance equilibrates across the membrane.
For series [3], the target named is human serum albumin (HSA) (Homo sapiens, UniProt P02768). Put plainly: Equilibrium dialysis with HSA. Type of series: in vitro ADME. As to conditions: 1 µM, 4% HSA, pH 7.4, 37 °C, 4 h, n = 3.
For series [4] the following is noted: after multiple days of dosing, limited therapeutic window; cited from earlier work.

human serum albumin (HSA), sequence (P02768 25-609): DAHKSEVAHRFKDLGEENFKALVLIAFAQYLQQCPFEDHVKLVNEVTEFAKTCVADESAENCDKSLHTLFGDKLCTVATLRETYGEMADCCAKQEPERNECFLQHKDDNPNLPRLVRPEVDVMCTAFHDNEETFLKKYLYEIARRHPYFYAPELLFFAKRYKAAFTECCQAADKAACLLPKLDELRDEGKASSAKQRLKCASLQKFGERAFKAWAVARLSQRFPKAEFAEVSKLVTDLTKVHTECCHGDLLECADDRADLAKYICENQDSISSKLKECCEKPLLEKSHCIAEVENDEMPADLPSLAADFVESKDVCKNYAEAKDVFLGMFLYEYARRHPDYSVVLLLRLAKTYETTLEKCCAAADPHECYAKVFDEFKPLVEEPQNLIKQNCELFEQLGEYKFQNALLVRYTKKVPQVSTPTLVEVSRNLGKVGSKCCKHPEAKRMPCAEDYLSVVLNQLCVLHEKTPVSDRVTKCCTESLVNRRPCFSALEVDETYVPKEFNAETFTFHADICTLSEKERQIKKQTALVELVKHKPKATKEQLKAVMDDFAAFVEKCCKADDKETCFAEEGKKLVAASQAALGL

Take `CC(C)(O)c1cn(-c2ccc(-c3cccc(S(C)(=O)=O)c3)cc2)c(C(C)(C)c2c(Cl)cccc2Cl)n1` [Example 6]: in series [1], the “improvement in hWBA potency compared to 5” value is given as 3 fold. For the same compound, the “human α1 AGP (% bound)” value in series [2] amounted to 99.6 ± 0.2%. Regarding `CC(C)(O)c1cn(-c2ccc(-c3cccc(S(C)(=O)=O)c3)cc2)c(C(C)(C)c2ccccc2Cl)n1` [Example 5], in series [2], the “human α1 AGP (% bound)” value worked out at 99.9 ± 0.0%. Besides, the “HSA (% bound)” value in series [3] was found to be 97.2 ± 0.3%. Consider `CC(C)(O)c1cn(-c2ccc(-c3cc(F)c(CO)c(S(C)(=O)=O)c3)cc2)c(C(C)(C)c2ccccc2Cl)n1` [Example 10], for which the “improvement in hWBA potency compared to 5” value in series [1] was 20 fold. Consider `CC(C)(O)c1cn(-c2ccc(-c3cc(F)c(CO)c(S(C)(=O)=O)c3)cc2F)c(C(C)(C)c2c(Cl)cccc2Cl)n1` [Example 15], for which the “TGs and LDL-C in human trials” value in series [4] was “elevated”. Take `CC(C)(O)c1cn(-c2ccc(-c3cc(F)c(CO)c(S(C)(=O)=O)c3)cc2)c(C(C)(C)c2c(Cl)cccc2Cl)n1` [Example 12]: the “improvement in hWBA potency” value in series [1] (2,6-dichloro analogue vs 10) is 3–4 fold.
